Reference: patent US20120190666A1, “Heteroaryl Compounds as PIKK Inhibitors” (Amgen Inc., priority 2009, published 2012)

Tests used:
[1] = system: phosphorylation of Akt at Serine 473 in U87 MG cells; assay: pAkt AlphaScreen (U87 cell); format: cell-based; details: Homo sapiens, U-87 MG, 2 h; pAkt at Serine 473, U87 MG cells, two hours with compound
Method: The pAkt AlphaScreen® assay (PerkinElmer, Waltham, Mass.) determines whether there is phosphorylation of Akt at Serine 473 by recruitment of a phosphospecific antibody. This assay was performed using U87 MG cells. The U87 growth media consists of MEM (Gibco, Carlsbad, Calif.) supplemented with 10% FBS (Gibco), 1× Non-Essential Amino Acids (Gibco,) and 1× Penicillin/Streptomycin/Glutamine (Gibco). The cells were maintained weekly using 0.05% Trypsin (Gibco) and replated in 150 mm TC— Treated Culture Dishes (Corning, Corning, N.Y.).
The first day of the assay, the adherent cells were trypsinized, media was added to the loose cells and cells were mixed to a homogenous mixture. 0.5 ml of the homogenous mixture was counted on the Beckman Coulter® Vi-Cell™ XR (Fullerton, Calif.). 50 frames of cells were counted and the number of viable cells was determined. The cells were then diluted to 0.25 million cells per ml, and centrifuged at 200 rcf for 5 minutes. The media was removed and the cells were reconstituted in fresh media for plating. The cells were plated at 20 μl per well on the PerkinElmer® FlexDrop PLUS in Low Volume 384 Well White Tissue Culture Plates (Corning) with a final cell density of 5K cells per well. The plates were incubated overnight at 37° Celsius, 5% CO2.
On the second day, the compound plates were prepared, the cells were treated with compound and the pAkt reaction mix was added to the cell lysate. 384 well compound plates were prepared containing 1 μl of compound per well starting at 5 mM and diluted 1:2 across the row, resulting in a 22 well serial dilution. 39 μl of growth media was added to the compound plate in rows 1-22 using the PerkinElmer® FlexDrop PLUS resulting in a DMSO concentration of 2.5%. The cell plates and diluted compound plates were put onto the VELOCITY11™ VPREP™ 384 ST where the compound plate was mixed and 5 μl of serially diluted compound or controls was added to the cell plate. The final concentration of the compounds was 25 μM serially diluted to 11.9 pM in 0.5% DMSO.
The cell plates were then incubated with compound for two hours at 37° C., 5% CO2. After two hours, the media in the cell plates was aspirated using the BioTek® ELx405HT plate washer (Winooski, Vt.) removing the majority of media and compound without disturbing the adherent U87 cells. The following assay reagents are components of the SureFire® Akt (Ser 473) Phosphorylation 50K Point Kit (TGR BioSciences, Adelaide, Austalia) and an IgG Detection Kit (PerkinElmer, Waltham, Mass.). 5 μl of 1× Lysis Buffer was added to each well using the PerkinElmer® FlexDrop PLUS. The plates were then incubated at room temperature on a shaker for ten minutes. The AlphaScreen® reaction was prepared under low light conditions (subdued or green light) including p-Aid (Ser 473) Reaction Buffer, Dilution Buffer, Activation Buffer, Acceptor Beads and Donor Beads at a ratio of 40:20:10:1:1 respectively. The AlphaScreen® reaction was added to the cell lysate at 6 μl per well using the PerkinElmer® FlexDrop PLUS. The plates were placed in a humid environment to reduce edge effects and incubated overnight at room temperature with restricted air flow in the dark.
On the final day of the experiment, the plates were read on the PerkinElmer® EnVision™ 2103 Multilable Reader using the standard AlphaScreen® readout. The POC is calculated and the data is analyzed to report the IC50 IP for pAkt at Serine 473.
Activity data for the compounds tested in the PI3K cell based Akt assay is provided in Table 1 under the column heading U87

[2] = target: T1, PI3Kα (Homo sapiens, UniProt P42336); assay: In vitro PI3K AlphaScreen assay, PI3Kα; format: biochemical; details: PI(4,5)P2 substrate, 20 minutes at room temperature, read-out: P13Kalpha IC50 um
T1 construct: Full length p110 subunits of PI3K α, β and δ, N-terminally labeled with polyHis tag; polyHis (N); made in house; host or cells: Sf9 insect cells (baculovirus)
T1 sequence (P42336 whole entry): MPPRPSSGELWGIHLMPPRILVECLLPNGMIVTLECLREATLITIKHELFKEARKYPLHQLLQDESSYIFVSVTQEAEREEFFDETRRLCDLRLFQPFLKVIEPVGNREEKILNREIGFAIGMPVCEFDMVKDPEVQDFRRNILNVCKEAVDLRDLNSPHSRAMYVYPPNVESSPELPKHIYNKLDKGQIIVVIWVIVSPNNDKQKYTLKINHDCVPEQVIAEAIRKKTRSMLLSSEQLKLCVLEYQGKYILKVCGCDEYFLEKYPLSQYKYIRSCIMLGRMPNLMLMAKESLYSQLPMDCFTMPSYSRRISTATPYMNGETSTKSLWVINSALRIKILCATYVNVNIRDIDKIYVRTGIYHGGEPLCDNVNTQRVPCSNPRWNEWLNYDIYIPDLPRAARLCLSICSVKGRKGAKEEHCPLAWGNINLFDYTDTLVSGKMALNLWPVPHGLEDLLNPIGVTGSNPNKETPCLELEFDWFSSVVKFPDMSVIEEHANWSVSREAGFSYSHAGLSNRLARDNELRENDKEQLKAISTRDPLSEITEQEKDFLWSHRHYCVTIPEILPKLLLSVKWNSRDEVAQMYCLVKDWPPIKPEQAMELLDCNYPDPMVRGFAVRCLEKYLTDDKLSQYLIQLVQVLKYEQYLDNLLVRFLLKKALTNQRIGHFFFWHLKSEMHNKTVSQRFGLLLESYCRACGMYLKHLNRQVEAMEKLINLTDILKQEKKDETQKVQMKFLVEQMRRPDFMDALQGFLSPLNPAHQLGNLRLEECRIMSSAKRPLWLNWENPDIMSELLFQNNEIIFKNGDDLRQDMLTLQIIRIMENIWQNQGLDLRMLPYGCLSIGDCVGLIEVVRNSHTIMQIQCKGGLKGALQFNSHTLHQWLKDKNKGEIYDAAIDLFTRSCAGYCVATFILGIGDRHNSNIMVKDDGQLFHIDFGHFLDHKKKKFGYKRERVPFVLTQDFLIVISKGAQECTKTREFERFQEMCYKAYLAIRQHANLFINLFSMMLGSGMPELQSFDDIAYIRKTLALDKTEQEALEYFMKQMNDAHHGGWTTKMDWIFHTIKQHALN
T1 sequence (P27986 whole entry partner): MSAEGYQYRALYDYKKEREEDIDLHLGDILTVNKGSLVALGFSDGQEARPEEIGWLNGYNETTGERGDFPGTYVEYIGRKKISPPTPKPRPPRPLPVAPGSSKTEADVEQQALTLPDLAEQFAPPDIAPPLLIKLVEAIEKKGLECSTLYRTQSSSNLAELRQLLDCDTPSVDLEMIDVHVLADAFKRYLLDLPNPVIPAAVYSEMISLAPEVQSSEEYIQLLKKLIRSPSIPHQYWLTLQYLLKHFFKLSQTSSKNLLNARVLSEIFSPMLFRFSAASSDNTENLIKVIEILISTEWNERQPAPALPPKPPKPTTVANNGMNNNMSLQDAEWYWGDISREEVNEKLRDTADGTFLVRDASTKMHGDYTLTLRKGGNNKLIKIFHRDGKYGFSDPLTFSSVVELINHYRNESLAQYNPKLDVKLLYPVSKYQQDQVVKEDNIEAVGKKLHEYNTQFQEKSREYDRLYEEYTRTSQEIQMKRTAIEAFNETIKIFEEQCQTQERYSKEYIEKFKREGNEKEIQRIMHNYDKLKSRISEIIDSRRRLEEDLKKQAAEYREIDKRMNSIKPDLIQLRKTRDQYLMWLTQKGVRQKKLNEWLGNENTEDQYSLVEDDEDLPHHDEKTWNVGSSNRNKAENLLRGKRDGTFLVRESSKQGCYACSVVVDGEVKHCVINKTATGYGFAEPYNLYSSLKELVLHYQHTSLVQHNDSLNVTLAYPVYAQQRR
Method: The PI3K AlphaScreen® assay (PerkinElmer, Waltham, Mass.) measures the activity of a panel of four phosphoinositide 3-kinases: PI3Kα, PI3KIβ, PI3Kγ, and PI3Kδ. Each of these enzymes phosphorylates the 3′-hydroxyl group on phosphatidylinositiol (4,5)-bisphosphate (PIP2) to produce phosphatidylinositol (3,4,5)-trisphosphate (PIP3). This phosphorylation activity is measured using a GST-tagged PIP3 binding protein (Echelon Biosciences, Salt Lake City, Utah), an anti-GST-tagged Acceptor bead, and streptavidin-Donor bead. The interaction of biotinylated-PIP3 analog (IP4) and the PIP3 binding protein brings both Acceptor and Donor beads together producing, upon excitation of the Donor beads at 680 nm, a singlet oxygen species leading to the luminescent AlphaScreen® signal. When PIP3 is produced via phosphorylation of PIP2 by a PI3K, PIP3 competes with biotinylated-PIP3 analog (IP4) for binding to the PIP3 binding protein. In the absence of this interaction, proximity of the Donor and Acceptor beads is decreased, producing a loss of luminescent signal which is […] to PI3K activity. […] The enzyme reaction buffer is made using sterile water (Baxter, Deerfield, Ill.) and 50 mM Tris HCl pH 7, 14 mM MgCl2, 2 mM sodium cholate, and 100 mM NaCl. 2 mM DTT is added fresh the day of the experiment. The AlphaScreen® reaction buffer is made using sterile water and 10 mM Tris HCl pH 7.5, 150 mM NaCl, 0.10% Tween 20, and 30 mM EDTA. 1 mM DTT is added fresh the day of the experiment. The source plates for this assay are 384-well Greiner clear polypropylene plates containing test compounds at 5 mM and diluted 1:2 over 22 points. Columns 23 and 24 contain only DMSO as these are designated for positive and negative controls. Source plates are replicated into 384-well Optiplates (PerkinElmer, Waltham, Mass.), 0.5 μL/well, to make assay-ready plates. The different PI3K isoforms are each diluted in enzyme reaction buffer to 2× working solutions. PI3Kα is diluted to 1.6 nM, PI3Kβ is diluted to 0.8 nM, PI3Kγ is diluted to 15 nM, and PI3Kδ is diluted to 1.6 nM. Two different 2× substrate solutions are made in enzyme reaction buffer. In one solution, PI(4,5)P2 (Echelon Biosciences, Salt Lake City, Utah) is diluted to 10 μM and ATP is diluted to 20 μM. This solution is used in the assays testing PI3Kα and PI3Kβ. In a second solution, PI(4,5)P2 is diluted to 10 μM and ATP is diluted to 80 μM. This solution is used in the assays testing PI3Kγ and PI3Kδ. The AlphaScreen® reaction solutions are made using beads from the anti-GST AlphaScreen® kit (PerkinElmer, Waltham, Mass.). Two solutions are made in Alphascreen reaction buffer to 4× working concentrations. In one solution, biotinylated-IP4 (Echelon Biosciences, Salt Lake City, Utah) is diluted to 40 nM and streptavadin-Donor Beads are diluted to 80 μg/mL. In the second solution, PIP3-binding protein (Echelon Biosciences, Salt Lake City, Utah) is diluted to 40 nM and anti-GST-Acceptor Beads are diluted to 80 μg/mL. 10 μL/well of enzyme reaction buffer is added to Column 24 of the assay ready plates in place of enzyme. This is done for plates in the PI3Kα, β, and δ assays. Using a 384-well dispensing Multidrop (Titertek, Huntsville, Ala.), 10 μL/well of 2× enzyme (PI3Kα, β, δ) is added to Columns 1-23 of the appropriate assay ready plates (for PI3Kγ 10 μL is added to Columns 1-24). 10 μL/well of the appropriate substrate solution (the solution with 20 μM ATP for PI3Kα and β assays, and the solution with […] for PI3Kγ and δ assays) is then added to Columns 1-24 of the plates. Plates are then incubated at room temperature for 20 minutes. In the dark, 10 μL/well of the Donor Bead solution is added to Columns 1-24 of the plates to quench the enzyme reaction. The plates are incubated at room temperature for 30 minutes. Still in the dark, 10 μL/well of the Acceptor Bead solution is also added to Columns 1-24 of the plates. The plates are then incubated in the dark for 1.5 hours.

SMILES | IC50 [1] [nM] | IC50 [2] [µM]
COc1ccc(Nc2nc3ccccn3c2-c2nc(C)nc(N)n2)cn1 [Cpd 4, 3-(4-amino-6-methyl-1,3,5-triazin-2-yl)-N-(6-methoxypyridin-3-yl)imidazo[1,2-a]pyridin-2-amine] | 40 | –
COCCN1CCN(c2ccc3nc(Nc4cnc(OC)c(F)c4)c(-c4nc(C)nc(N)n4)n3c2)CC1 [Cpd 29, 3-(4-amino-6-methyl-1,3,5-triazin-2-yl)-N-(5-fluoro-6-methoxy-3-pyridinyl)-6-(4-(2-methoxyethyl)-1-piperazinyl)imidazo[1,2-a]pyridin-2-amine] | 26 | –
CNc1cc(-c2c(Nc3cc[nH]n3)nc3cc(N4CCOCC4)cnn23)nc(C)n1 [Cpd 88, 3-(2-methyl-6-(methylamino)-4-pyrimidinyl)-7-(4-morpholinyl)-N-1H-pyrazol-3-ylimidazo[1,2-b]pyridazin-2-amine] | 1630 | 4.5
Cc1nc(NC(=O)Cc2ccc(F)cc2F)cc(-c2c(Nc3ccn(C)n3)nc3cccnn23)n1 [Cpd 129, 2-(2,4-difluorophenyl)-N-(2-methyl-6-(2-((1-methyl-1H-pyrazol-3-yl)amino)imidazo[1,2-b]pyridazin-3-yl)-4-pyrimidinyl)acetamide] | 1470 | 4.94
Cc1nc(Nc2ccc(N3CCOCC3)nn2)cc(-c2c(Nc3ccn(C)n3)nc3cccnn23)n1 [Cpd 149, 3-(2-methyl-6-((6-(4-morpholinyl)-3-pyridazinyl)amino)-4-pyrimidinyl)-N-(1-methyl-1H-pyrazol-3-yl)imidazo[1,2-b]pyridazin-2-amine] | 280 | –
COCCNC(=O)n1ccc(Nc2nc3cccnn3c2-c2cc(N)nc(C)n2)n1 [Cpd 264] | 3150 | 33.4
COc1ccc(Nc2nc3ccc(N4CCN(C(C)=O)CC4)cn3c2-c2nc(C)nc(N)n2)cn1 [Cpd 285, 6-(4-acetyl-1-piperazinyl)-3-(4-amino-6-methyl-1,3,5-triazin-2-yl)-N-(6-methoxy-3-pyridinyl)imidazo[1,2-a]pyridin-2-amine] | – | 0.09
Cc1nc(N)cc(-c2c(Nc3cccc(NC(=O)NC4CC4)c3)nc3cccnn23)n1 [Cpd 316, 1-(3-((3-(6-amino-2-methyl-4-pyrimidinyl)imidazo[1,2-b]pyridazin-2-yl)amino)phenyl)-3-cyclopropylurea] | 950 | –
Cc1nc(N)cc(-c2c(Nc3cccc(NC(=O)Cc4ccccc4)c3)nc3ccccn23)n1 [Cpd 318, N-(3-((3-(6-amino-2-methyl-4-pyrimidinyl)imidazo[1,2-a]pyridin-2-yl)amino)phenyl)-2-phenylacetamide] | – | 12

Further lines, results first:

IC50 [1] [nM] | IC50 [2] [µM] | SMILES
3920 | – | Cc1nc(N)cc(-c2c(Nc3cccc(S(C)(=O)=O)c3)nc3cccnn23)n1 [Cpd 94, 3-(6-amino-2-methyl-4-pyrimidinyl)-N-(3-(methylsulfonyl)phenyl)imidazo[1,2-b]pyridazin-2-amine]
3160 | 5.03 | Cc1nc(NC(=O)Cc2cccc(F)c2)cc(-c2c(Nc3ccn(C)n3)nc3ccccn23)n1 [Cpd 128]
– | 15.8 | Cc1nc(N)cc(-c2c(Nc3ccn(C(=O)Nc4cc(C(F)(F)F)ccc4Cl)n3)nc3cccnn23)n1 [Cpd 246, 3-((3-(6-amino-2-methyl-4-pyrimidinyl)imidazo[1,2-b]pyridazin-2-yl)amino)-N-(2-chloro-5-(trifluoromethyl)phenyl)-1H-pyrazole-1-carboxamide]
110 | 0.32 | Cc1nc(N)cc(-c2c(Nc3ccc(N4CC(O)C4)nc3)nc3cccnn23)n1 [Cpd 272, 1-(5-((3-(6-amino-2-methyl-4-pyrimidinyl)imidazo[1,2-b]pyridazin-2-yl)amino)-2-pyridinyl)-3-azetidinol]
140 | 0.04 | Cc1nc(N)nc(-c2c(Nc3ccc4cccnc4c3)nc3ccc(N4CCN(C(=O)N(C)C)CC4)cn23)n1 [Cpd 277, 4-(3-(4-amino-6-methyl-1,3,5-triazin-2-yl)-2-(7-quinolinylamino)-imidazo[1,2-a]pyridin-6-yl)-N,N-dimethyl-1-piperazinecarboxamide]
710 | 0.3 | Cc1nc(N)nc(-c2c(Nc3ccn[nH]3)nc3ccc(C(N)=O)cn23)n1 [Cpd 293, 3-(4-amino-6-methyl-1,3,5-triazin-2-yl)-2-(1H-pyrazol-5-ylamino)-imidazo[1,2-a]pyridine-6-carboxamide]
240 | 2.98 | Cc1nc(NCC(F)(F)F)cc(-c2c(Nc3ccn[nH]3)nc3cccnn23)n1 [Cpd 295, 3-(2-methyl-6-((2,2,2-trifluoroethyl)amino)-4-pyrimidinyl)-N-1H-pyrazol-5-ylimidazo[1,2-b]pyridazin-2-amine]
240 | 4.94 | CNC(=O)c1cccc(Nc2nc3cccnn3c2-c2cc(N)nc(C)n2)c1 [Cpd 334]
